{"source": "patent US20240300977A1", "about": "“INHIBITORS OF DNA-DEPENDENT PROTEIN KINASE AND COMPOSITIONS AND USES THEREOF” (Intellia Therapeutics, Inc., priority 2021, published 2024)", "key": {"T cells [1]": {"system": "T cells", "assay": "Off-target structural variation by UnIT", "format": "cell-based, human", "details": "T cells from Example 12, day 8 post-editing; TRAC sgRNA G013006", "from_the_text": "(§1) On day 8 post-editing, T cells from Example 12 from the untreated, unedited, Compound 3 and Compound 4 guides samples were collected, spun down and the pellets were directly used as input material for gDNA isolation using “Zymo Quick DNA/RNA Mag Beads Kit” (Zymo Cat. R2131). The UnIT structural variant characterization assay was applied to these gDNA samples. High molecular weight genomic DNA is simultaneously fragmented and sequence-tagged (‘tagmented’) with the Tn5 transposase and an adapter with a partial Illumina P5 sequence and a 12 bp unique molecular identifier (UMI). Two sequential PCRs using a primer to P5 and hemi-nested gene specific primers (GSP) imparting the Illumina the P7 sequence to create two Illumina compatible NGS libraries per sample (Illumina, Ref 15033624). Sequencing across both directions of the CRISPR/Cas9 targeted cut site with the two libraries allows the inference and quantification of structural variants in DNA repair outcomes after genome editing. If the two fragments were aligned to different chromosomes, the SV was classified as an “inter-chromosomal translocation.” The magnitude of structural variation was shown in FIG. 9A and Table 18."}, "697 ALL cells (697-luc2) [2]": {"system": "697 ALL cells (697-luc2)", "assay": "Cytokine release by WT1 TCR T cells, MSD U/R-PLEX", "format": "cell-based, human", "design": "unit not given here", "details": "2:1 E:T, 24h supernatant, T cells engineered with inhibitor, duplicate values", "procedure": "(§2) The ability of WT1-TCR T cells engineered from donors 007HD and 008HD to kill hematological cancer cells expressing natural levels of WT1 and release cytokines was evaluated. TCR KO cells generated as described above but without TRAC/AAV addition were used as a negative, non-killing control. Briefly, T cells were co-cultured with luciferase expressing 697 ALL cells (697-luc2), or K562-luc2 cells transduced to express HLA-A*02:01 (K5692-HLA-A*02:01-luc2) at various effector to target (E:T) ratios (2:1, 1:1, 0.5:1) in TCEM without the addition of IL-2, IL-7, or IL-15. […] After 24h of co-culture, supernatants from the 2:1 E:T ratio group were harvested and used in an MSD U/R-PLEX assay to quantify IL-2, TNFα, IFNγ, and Granzyme B following manufacturers protocol (Mesoscale Discovery). After 48h of co-culture luciferase activity was quantified using the Bright-GLO Luciferase Assay System (Promega) in relative luminescence units (RLU). Percent specific lysis was determined using the formula: […]"}, "[3]": {"system": "K562-luc2 cells transduced to express HLA-A*02:01", "assay": "Cytokine release by WT1 TCR T cells, MSD U/R-PLEX", "format": "cell-based, human", "design": "unit not given here", "details": "K562-HLA-A2.1, 2:1 E:T, 24h supernatant, T cells engineered with inhibitor, duplicate values", "procedure": "as §2"}, "697 ALL cells (697-luc2) [4]": {"system": "697 ALL cells (697-luc2)", "assay": "WT1 TCR T cell mediated cytotoxicity, luciferase assay", "format": "cell-based, human", "details": "WT1-T cells (HD1) engineered with inhibitor, 48h, duplicate values", "procedure": "(§3) The ability of WT1-TCR T cells engineered from donors 007HD and 008HD to kill hematological cancer cells expressing natural levels of WT1 and release cytokines was evaluated. TCR KO cells generated as described above but without TRAC/AAV addition were used as a negative, non-killing control. Briefly, T cells were co-cultured with luciferase expressing 697 ALL cells (697-luc2), or K562-luc2 cells transduced to express HLA-A*02:01 (K5692-HLA-A*02:01-luc2) at various effector to target (E:T) ratios (2:1, 1:1, 0.5:1) in TCEM without the addition of IL-2, IL-7, or IL-15. […] After 24h of co-culture, supernatants from the 2:1 E:T ratio group were harvested and used in an MSD U/R-PLEX assay to quantify IL-2, TNFα, IFNγ, and Granzyme B following manufacturers protocol (Mesoscale Discovery). After 48h of co-culture luciferase activity was quantified using the Bright-GLO Luciferase Assay System (Promega) in relative luminescence units (RLU). Percent specific lysis was determined using the formula:\n(§4) % Specific Lysis=100−((RLU[Experimental Well]/RLU[Target Only Well])*100)"}, "[5]": {"system": "K562-luc2 cells transduced to express HLA-A*02:01", "assay": "WT1 TCR T cell mediated cytotoxicity, luciferase assay", "format": "cell-based, human", "details": "WT1-T cells (HD1) engineered with inhibitor, K562-HLA-A*02:01, 48h, duplicate values", "procedure": "as §3, §4"}, "T cells [6]": {"system": "T cells", "assay": "Insertion percent in T cells of Example 17", "format": "cell-based, human", "details": "T cells from Example 12; FIG. 9B", "from_the_text": "as §1"}, "TRAC": {"system": "TRAC", "details": "human"}, "T cells [7]": {"system": "T cells", "assay": "TRAC LNP editing and GFP insertion in activated T cells with DNA-PK inhibitors, flow cytometry", "details": "day 5 post-edit; for Mean % CD3^−/GFP+ Cells (n = 3): GFP positive of the CD3 negative T cells; for Mean % CD3^− Cells (n = 3): TRAC LNP + GFP AAV"}, "TRBC": {"system": "TRBC", "assay": "Off-target site validation, rhAmpSeq", "details": "gRNA G016239 targeting TRBC; of 92 off-target sites; with the named DNA-PKI or none"}}, "note": "Several values for one entry are separate records, joined by “and”; a condition that tells them apart may be missing. Equal entries are not always repeated.", "data": [{"smiles": "Cc1cc2ncnn2cc1Nc1ncc2c(n1)n(C1CCC(F)(F)CC1)c(=O)n2C", "note": "[Compound 3, 9-(4,4-difluorocyclohexyl)-7-methyl-2-((7-methyl-[1,2,4]triazolo[1,5-a]pyridin-6-yl)amino)-7,9-dihydro-8H-purin-8-one]", "values": [{"measurement": "Unintended Structural Variance (Average)", "setting": "T cells [1]", "result": 1.30, "unit": "%"}, {"measurement": "Granzyme B", "setting": "697 ALL cells (697-luc2) [2]; donor 007HD", "result": "1441.06 and 1664.25"}, {"measurement": "IFN-gamma", "setting": "697 ALL cells (697-luc2) [2]; donor 007HD", "result": "923.97 and 977.71"}, {"measurement": "IL-2", "setting": "697 ALL cells (697-luc2) [2]; donor 007HD", "result": "2.23 and 4.32"}, {"measurement": "TNF-alpha", "setting": "697 ALL cells (697-luc2) [2]; donor 007HD", "result": "5.29 and 3.46"}, {"measurement": "Granzyme B", "setting": "697 ALL cells (697-luc2) [2]; donor 008HD", "result": "1777.28 and 1609.68"}, {"measurement": "IFN-gamma", "setting": "697 ALL cells (697-luc2) [2]; donor 008HD", "result": "7169.43 and 6733.05"}, {"measurement": "IL-2", "setting": "697 ALL cells (697-luc2) [2]; donor 008HD", "result": "8.1 and 7.14"}, {"measurement": "TNF-alpha", "setting": "697 ALL cells (697-luc2) [2]; donor 008HD", "result": "18.57 and 16.3"}, {"measurement": "Granzyme B", "setting": "[3]; donor 007HD", "result": "17178.54 and 20713.6"}, {"measurement": "IFN-gamma", "setting": "[3]; donor 007HD", "result": "41527.06 and 59686.42"}, {"measurement": "TNF-alpha", "setting": "[3]; donor 007HD", "result": "66.56 and 73.76"}, {"measurement": "Granzyme B", "setting": "[3]; donor 008HD", "result": "17134.42 and 18197.02"}, {"measurement": "IFN-gamma", "setting": "[3]; donor 008HD", "result": "200584.6 and 216197.4"}, {"measurement": "IL-2", "setting": "[3]; donor 008HD", "result": "484.52 and 524.89"}, {"measurement": "TNF-alpha", "setting": "[3]; donor 008HD", "result": "302.06 and 324.18"}, {"measurement": "Percent specific lysis", "setting": "697 ALL cells (697-luc2) [4]; E:T 0.5, donor 007HD", "result": "4.60% and 2.72%"}, {"measurement": "Percent specific lysis", "setting": "697 ALL cells (697-luc2) [4]; E:T 0.5, donor 008HD", "result": "63.10% and 72.62%"}, {"measurement": "Percent specific lysis", "setting": "697 ALL cells (697-luc2) [4]; E:T 1, donor 007HD", "result": "39.43% and 30.39%"}, {"measurement": "Percent specific lysis", "setting": "697 ALL cells (697-luc2) [4]; E:T 1, donor 008HD", "result": "95.29% and 94.31%"}, {"measurement": "Percent specific lysis", "setting": "697 ALL cells (697-luc2) [4]; E:T 2, donor 007HD", "result": "77.64% and 65.49%"}, {"measurement": "Percent specific lysis", "setting": "697 ALL cells (697-luc2) [4]; E:T 2, donor 008HD", "result": "98.98% and 98.97%"}, {"measurement": "Percent specific lysis", "setting": "[5]; E:T 0.5, donor 007HD", "result": "47.03% and 41.52%"}, {"measurement": "Percent specific lysis", "setting": "[5]; E:T 0.5, donor 008HD", "result": "72.45% and 71.77%"}, {"measurement": "Percent specific lysis", "setting": "[5]; E:T 1, donor 007HD", "result": "78.53% and 75.83%"}, {"measurement": "Percent specific lysis", "setting": "[5]; E:T 1, donor 008HD", "result": "98.67% and 99.08%"}, {"measurement": "Percent specific lysis", "setting": "[5]; E:T 2, donor 007HD", "result": "98.79% and 96.99%"}, {"measurement": "Percent specific lysis", "setting": "[5]; E:T 2, donor 008HD", "result": "99.96% and 99.84%"}, {"measurement": "Insertion Percent (Average)", "setting": "T cells [6]", "result": 68.35, "unit": "%"}, {"measurement": "Sites Validated", "setting": "TRAC", "result": 0}, {"measurement": "Mean % CD3^−/GFP+ Cells (n = 3)", "setting": "T cells [7]; compound 0.0625 uM", "result": 75.50, "unit": "%"}, {"measurement": "Mean % CD3^− Cells (n = 3)", "setting": "T cells [7]; compound 0.0625 uM", "result": 50.73, "unit": "%"}, {"measurement": "Mean % CD3^−/GFP+ Cells (n = 3)", "setting": "T cells [7]; compound 1 uM", "result": 79.60, "unit": "%"}, {"measurement": "Mean % CD3^− Cells (n = 3)", "setting": "T cells [7]; compound 1 uM", "result": 58.90, "unit": "%"}, {"measurement": "Sites Validated", "setting": "TRBC", "result": 0}]}]}
